Source: patent US20080132509A1, “Substituted Biaryl Analogues” (Neurogen Corporation, priority 2004, published 2008)

molecular target: VR (Homo sapiens, UniProt Q8NER1); experiment: not given; conditions: typically; no more than moderate affinity; cited from earlier work
Sequence (Q8NER1 whole entry): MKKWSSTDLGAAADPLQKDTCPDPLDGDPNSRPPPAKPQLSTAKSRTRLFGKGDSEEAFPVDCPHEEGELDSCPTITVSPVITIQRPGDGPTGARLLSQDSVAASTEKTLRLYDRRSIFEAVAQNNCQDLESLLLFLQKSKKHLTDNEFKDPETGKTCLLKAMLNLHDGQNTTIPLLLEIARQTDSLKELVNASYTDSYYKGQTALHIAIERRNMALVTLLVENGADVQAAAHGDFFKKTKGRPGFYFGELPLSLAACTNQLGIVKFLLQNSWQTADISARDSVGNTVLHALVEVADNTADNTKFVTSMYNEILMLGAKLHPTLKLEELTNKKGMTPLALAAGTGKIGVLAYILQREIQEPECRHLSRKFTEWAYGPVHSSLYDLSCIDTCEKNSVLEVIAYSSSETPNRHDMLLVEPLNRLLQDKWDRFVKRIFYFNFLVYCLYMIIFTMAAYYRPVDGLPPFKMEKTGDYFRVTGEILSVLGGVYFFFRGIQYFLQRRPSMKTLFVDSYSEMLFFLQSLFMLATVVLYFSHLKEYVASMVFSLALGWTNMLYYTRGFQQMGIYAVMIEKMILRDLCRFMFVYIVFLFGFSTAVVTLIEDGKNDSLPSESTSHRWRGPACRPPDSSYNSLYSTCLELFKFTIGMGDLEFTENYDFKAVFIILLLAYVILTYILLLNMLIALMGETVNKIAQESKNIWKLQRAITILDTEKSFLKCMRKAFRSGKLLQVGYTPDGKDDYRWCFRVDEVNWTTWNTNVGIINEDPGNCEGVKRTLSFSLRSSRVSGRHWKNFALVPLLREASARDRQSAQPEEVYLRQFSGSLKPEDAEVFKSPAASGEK

SMILES	Ki [nM]
Cl.Cl.Cl.Cl.Cl.Cl.N.N.N.N.N.N.N.N.N.N.N.N.N.N.[O-2].[O-2].[Ru+3].[Ru+3].[Ru+4] [ruthenium red]	≥ 140000

molecular target: T1, human capsaicin receptor (Homo sapiens, UniProt Q8NER1); experiment: Calcium mobilization assay, determination of agonist activity; assay type: cell-based; conditions: cells expressing human capsaicin receptor, no capsaicin added, FLUO-3 fluorescence
T1 construct: expressed in transfected cells
T1 sequence (Q8NER1 whole entry): as above
Method: (§1) A cDNA encoding full length human capsaicin receptor (SEQ ID NO: 1, 2 or 3 of U.S. Pat. No. 6,482,611) was subcloned in the plasmid pBK-CMV (Stratagene, La Jolla, Calif.) for recombinant expression in mammalian cells.
(§2) Human embryonic kidney (HEK293) cells were transfected with the pBK-CMV expression construct encoding the full length human capsaicin receptor using standard methods. The transfected cells were selected for two weeks in media containing G418 (400 μg/ml) to obtain a pool of stably transfected cells. Independent clones were isolated from this pool by limiting dilution to obtain clonal stable cell lines for use in subsequent experiments.
Cells transfected with expression plasmids (as described in Example 4) and thereby expressing human capsaicin receptor are seeded and grown to 70-90% confluency in FALCON black-walled, clear-bottomed 96-well plates (#3904, BECTON-DICKINSON, Franklin Lakes, N.J.). The culture medium is emptied from the 96 well plates and FLUO-3 AM calcium sensitive dye (Molecular Probes, Eugene, Oreg.) is added to each well (dye solution: 1 mg FLUO-3 AM, 440 μL DMSO and 440 μ20% pluronic acid in DMSO, diluted 1:250 in Krebs-Ringer HEPES (KRH) buffer (25 mM HEPES, 5 mM KCl, 0.96 mM NaH2PO4, 1 mM MgSO4, 2 mM CaCl2, 5 mM glucose, 1 mM probenecid, pH 7.4), 50 μl diluted solution per well). Plates are covered with aluminum foil and incubated at 37° C. for 1-2 hours in an environment containing 5% CO2. […]
The ability of a test compound to act as an agonist of the capsaicin receptor is determined by measuring the fluorescence response of cells expressing capsaicin receptors elicited by the compound as function of compound concentration. […] The extent of efficacy of each test compound is also determined by calculating the response elicited by a concentration of test compound (typically 1 μM) relative to the response elicited by 100 nM capsaicin. This value, called Percent of Signal (POS), is calculated by the following equation: […]

SMILES	EC50 [nM]
CC1CCCN1c1nc(-c2ccc(F)cc2)cc(-c2ccc(N3CCC(C(N)=O)CC3)nc2)n1 (stereo not shown) [Compound 4, 1-{5-[6-(4-fluorophenyl)-2-(2-methylpyrrolidin-1-yl)pyrimidin-4-yl]pyridin-2-yl}piperidine-4-carboxamide]	< 1000
CC1CCCN1c1nc(-c2ccc(F)cc2)cc(-c2ccc(N3CCC(CO)CC3)nc2)n1 (stereo not shown) [Compound 7, (1-{5-[6-(4-fluorophenyl)-2-(2-methylpyrrolidin-1-yl)pyrimidin-4-yl]pyridin-2-yl}piperidin-4-yl)methanol]	< 1000
CC1CCCN1c1nc(-c2ccc(F)cc2)cc(-c2ccc(N3CCC(O)CC3)nc2)n1 (stereo not shown) [Compound 1, 1-{5-[6-(4-fluorophenyl)-2-(2-methylpyrrolidin-1-yl)pyrimidin-4-yl]pyridin-2-yl}piperidin-4-ol]	< 1000

molecular target: T1, human capsaicin receptor; experiment: Calcium mobilization assay, determination of antagonist activity; assay type: cell-based; conditions: cells expressing human capsaicin receptor, capsaicin at EC50, FLUO-3 fluorescence; read-out: IC50 (antag.)
Method: as §1, §2
Cells transfected with expression plasmids (as described in Example 4) and thereby expressing human capsaicin receptor are seeded and grown to 70-90% confluency in FALCON black-walled, clear-bottomed 96-well plates (#3904, BECTON-DICKINSON, Franklin Lakes, N.J.). The culture medium is emptied from the 96 well plates and FLUO-3 AM calcium sensitive dye (Molecular Probes, Eugene, Oreg.) is added to each well (dye solution: 1 mg FLUO-3 AM, 440 μL DMSO and 440 μ20% pluronic acid in DMSO, diluted 1:250 in Krebs-Ringer HEPES (KRH) buffer (25 mM HEPES, 5 mM KCl, 0.96 mM NaH2PO4, 1 mM MgSO4, 2 mM CaCl2, 5 mM glucose, 1 mM probenecid, pH 7.4), 50 μl diluted solution per well). Plates are covered with aluminum foil and incubated at 37° C. for 1-2 hours in an environment containing 5% CO2. After the incubation, the dye is emptied from the plates, and the cells are washed once with KRH buffer, and resuspended in KRH buffer.
To measure the ability of a test compound to agonize or antagonize a calcium mobilization response in cells expressing capsaicin receptors to capsaicin or other vanilloid agonist, the EC50 of the agonist capsaicin is first determined. An additional 20 μl of KRH buffer and 1 μl DMSO is added to each well of cells, prepared as described above. 100 μl capsaicin in KRH buffer is automatically transferred by the FLIPR instrument to each well. Capsaicin-induced calcium mobilization is monitored using either FLUOROSKAN ASCENT (Labsystems; Franklin, Mass.) or FLIPR (fluorometric imaging plate reader system; Molecular Devices, Sunnyvale, Calif.) instruments. Data obtained between 30 and 60 seconds after agonist application are used to generate an 8-point concentration response curve, with final capsaicin concentrations of 1 nM to 3 μM. KALEIDAGRAPH software (Synergy Software, Reading, Pa.) is used to fit the data to the equation: […]
to determine the 50% excitatory concentration (EC50) for the response. In this equation, y is the maximum fluorescence signal, x is the concentration of the agonist or antagonist (in this case, capsaicin), a is the Emax, b corresponds to the EC50 value and c is the Hill coefficient.
Test compounds are dissolved in DMSO, diluted in 20 μl KRH buffer so that the final concentration of test compounds in the assay well is between 1 μM and 5 μM, and added to cells prepared as described above. The 96 well plates containing prepared cells and test compounds are incubated in the dark, at room temperature for 0.5 to 6 hours. It is important that the incubation not continue beyond 6 hours. Just prior to determining the fluorescence response, 100 μl capsaicin in KRH buffer at twice the EC50 concentration determined as described above is automatically added by the FLIPR instrument to each well of the 96 well plate for a final sample volume of 200 μl and a final capsaicin concentration equal to the EC50. The final concentration of test compounds in the assay wells is between 1 μM and 5 μM. […] The concentration of antagonist required to provide a 50% decrease, relative to the response observed in the presence of capsaicin and without antagonist, is the IC50 for the antagonist, and is preferably below 1 micromolar, 100 nanomolar, 10 nanomolar or 1 nanomolar.

SMILES	IC50 [nM]
Cc1cccnc1-c1ccc(-c2cc(-c3ccc(F)c(Cl)c3)nc(N3CCOCC3)n2)cn1 [Compound 6, 5′-[6-(3-chloro-4-fluorophenyl)-2-morpholin-4-ylpyrimidin-4-yl]-3-methyl-2,2′-bipyridine]	< 1000
CC1CCCN1c1nc(-c2ccc(F)cc2)cc(-c2ccc(N3CCC(C(=O)O)CC3)nc2)n1 (stereo not shown) [Compound 3, 1-{5-[6-(4-fluorophenyl)-2-(2-methylpyrrolidin-1-yl)pyrimidin-4-yl]pyridin-2-yl}piperidine-4-carboxylicacid]	< 1000
Nc1nc(-c2ccc(-c3ncccc3C(F)(F)F)cc2)cc(-c2ccc(F)c(Cl)c2)n1 [Compound 8, 4-(3-chloro-4-fluorophenyl)-6-{4-[3(trifluoromethyl)pyridin-2-yl]phenyl}pyrimidin-2-amine]	< 1000
Fc1ccc(-c2cc(-c3ccc(-c4ncccc4C(F)(F)F)nc3)nc(N3CCOCC3)n2)cc1Cl [Compound 5, 5′-[6-(3-chloro-4-fluorophenyl)-2-morpholin-4-ylpyrimidin-4-yl]-3-(trifluoromethyl)-2,2′-bipyridine]	< 1000
Fc1ccc(-c2cc(-c3ccc(-c4ncccc4C(F)(F)F)cc3)nc(N3CCOCC3)n2)cc1Cl [Compound 9, 4-(4-(3-chloro-4-fluorophenyl)-6-{4-[3-(trifluoromethyl)pyridin-2-yl]phenyl}pyrimidin-2-yl)morpholine]	< 1000
CC1CCCN1c1nc(-c2ccc(F)cc2)cc(-c2ccc(N3CCC(O)CC3)nc2)n1 (stereo not shown) [Compound 1, 1-{5-[6-(4-fluorophenyl)-2-(2-methylpyrrolidin-1-yl)pyrimidin-4-yl]pyridin-2-yl}piperidin-4-ol]	< 1000
